{"source": "patent US20250137054A1", "about": "“COMPOSITION AND METHOD FOR EVALUATING RESPONSIVENESS OF EDARAVONE” (MITSUBISHI TANABE PHARMA CORPORATION, priority 2022, published 2025)", "key": {"[1]": {"test_system": "disease model cells (neurons derived from the 1464R cell line forcibly expressing wild-type and mutant TDP-43)", "assay": "Evaluation of cell protection using chromogenic substrate (Cell Counting Kit-8), with EA", "type": "cell-based, rat", "settings": "Eda 1-200 μmol/L 24 h, then EA 20 μmol/L 24 h; vs Comparative Example 1 (FIG. 3)", "experimental": "Using both vectors (a) and (b), the differentiated cell line in the infection medium was infected with adenovirus at a multiplicity of infection of 50, and cultured for 24 hours. As a result, neurons derived from the 1464R cell line, in which both wild-type and mutant TDP-43 were forcibly expressed intracellularly (hereinafter, also referred to as disease model cells), were obtained.\nAfter that, a cell toxicity measurement kit (Cell Counting Kit-8, manufactured by DOJINDO) was used to expose the cells in each group according to a product protocol, and an amount of chromogenic substrate produced was measured by absorbance at 450 nm.\nWith this kit, the more viable cells present, the more chromogenic substrate is produced, resulting in a higher absorbance value at 450 nm. Therefore, a higher absorbance at 450 nm indicates a greater number of viable cells.\nThe data shown in FIG. 3 are all expressed as mean±standard error of the mean (SEM, n=4 for each). In FIG. 3, the symbol “##” indicates a statistically significant difference of p<0.01 compared to Comparative Example 1 (determined by Student t-test). In FIG. 3, the symbol “*” indicates a statistically significant difference of p<0.05 compared to Comparative Example 1, and the symbol “**” indicates a statistically significant difference of p<0.01 compared to Comparative Example 1 (both determined by Williams' multiple comparison test)."}, "[2]": {"test_system": "healthy individual-derived neurons (iPS cell-derived motor neurons)", "assay": "Evaluation of cellular damage by live cell imaging, healthy individual-derived neurons", "type": "cell-based, human", "settings": "edaravone 30 μM, 24 hours", "experimental": "Human induced pluripotent stem (iPS) cells were induced from cells derived from an ALS patient and cells derived from a healthy individual using a conventional method. The cells derived from the ALS patient were used that are known to have an ALS risk mutation as a heterozygous mutation in the TARDBP gene. Each iPS cell was differentiated into a motor neuron (hereinafter, also simply referred to as a “neuron”) using a conventional method. […]\nA treatment was performed in which the culture medium dissolved with a dimethyl sulfoxide (DMSO) solution of the evaluation compound (edaravone) (final concentration: edaravone 30 μM, DMSO 0.03% v/v) was brought into contact with the neurons after 7 days of cultivation, and occurrence of cellular damage was evaluated over time. […]\nEvaluation of cellular damage was performed by live cell imaging using IncuCyte S3 (Sartorius) and Cytotox (Sartorius, 4846) according to an attached protocol. The neurite length per unit area (unit: mm/mm^2) and the number of dead cells (unit: count/image) were analyzed over time and used as evaluation indicators. […]"}}, "data": [{"compound": "CC1=NN(c2ccccc2)C(=O)C1", "note": "[edaravone, 5-methyl-2-phenyl-2,4-dihydro-3H-pyrazol-3-one]", "values": [{"measurement": "absorbance at 450 nm (number of viable cells)", "setting": "[1]", "result": "increased in an Eda concentration-dependent manner"}, {"measurement": "neurite length (rate of change, DMSO group = 100)", "setting": "[2]; vs DMSO-treated group (FIG. 13)", "result": "no significant change"}, {"measurement": "number of dead neurons (rate of change, DMSO group = 100)", "setting": "[2]; vs DMSO-treated group (FIG. 14)", "result": "no significant change"}]}]}
